Tests used:
Format in all cases: in vivo
[1] = system: Spodoptera littoralis; test: Spodoptera littoralis (Egyptian cotton leaf worm), sprayed cotton leaf discs; settings: foliar, 72 h, application rate 200 ppm, L1 larvae, 3 days after infestation, read-out: control (mortality, anti-feeding effect, growth inhibition)
Outline: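 Cotton leaf discs on agar sprayed with aqueous test solutions made from 10'000 ppm DMSO stock; after drying, infested with five L1 larvae. Mortality, anti-feeding and growth inhibition scored versus untreated samples 3 days after infestation; control counted when any category exceeds untreated.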

[2] = system: Diabrotica balteata; test: Diabrotica balteata (corn root worm), sprayed maize sprouts; settings: 96 h, application rate 200 ppm, L2 larvae, 4 days after infestation, read-out: effect in at least one of the two categories (mortality or growth inhibition)
Outline: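 Maize sprouts on agar sprayed with aqueous dilutions of DMSO stocks, dried, then infested with L2 larvae (6–10 per well). Mortality and growth inhibition scored against untreated controls 4 days after infestation, at 200 ppm application rate.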

[3] = system: Euschistus heros; test: Euschistus heros (neotropical brown stink bug), sprayed soybean leaves; settings: 120 h, application rate 200 ppm, N2 nymphs, 5 days after infestation, read-out: effect in at least one of the two categories (mortality or growth inhibition)
Outline: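 Soybean leaves on agar sprayed with aqueous dilutions of DMSO stocks, dried, then infested with N2 nymphs. Mortality and growth inhibition scored against untreated samples 5 days after infestation; application rate 200 ppm.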

[4] = system: Thrips tabaci; test: Thrips tabaci (onion thrips): feeding/contact activity; settings: 144 h, application rate 200 ppm, Thrips population of mixed ages, 6 days after infestation, read-out: mortality
Method: (§1) Sunflower leaf discs were placed on agar in 24-well microtiter plates and sprayed with aqueous test solutions prepared from 10'000 ppm DMSO stock solutions. After drying the leaf discs were infested with a Thrips population of mixed ages. The samples were assessed for mortality 6 days after infestation.

[5] = system: Myzus persicae; test: Myzus persicae (green peach aphid): feeding/contact activity; settings: 144 h, application rate 200 ppm, aphid population of mixed ages, 6 days after infestation, read-out: mortality
Method: Sunflower leaf discs were placed onto agar in a 24-well microtiter plate and sprayed with aqueous test solutions prepared from 10'000 ppm DMSO stock solutions. After drying, the leaf discs were infested with an aphid population of mixed ages. The samples were assessed for mortality 6 days after infestation.

[6] = system: Tetranychus urticae; test: Tetranychus urticae (two-spotted spider mite): feeding/contact activity; settings: 192 h, application rate 200 ppm, mixed population (mobile stages), 8 days after infestation, read-out: mortality
Method: as §1, with “Bean” for “Sunflower”, “discs” for “discs were placed”, “were” for “and”, “mite” for “Thrips”, “on mixed population (mobile stages) 8” for “6”

[7] = system: Plutella xylostella; test: Plutella xylostella (diamond back moth), artificial diet; settings: 120 h, application rate 200 ppm, L2 larvae, 5 days after infestation, read-out: effect in at least one of the two categories (mortality or growth inhibition)
Outline: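 Artificial diet in 24-well plates treated with aqueous test solutions made from 10'000 ppm DMSO stocks, dried, then infested with L2 larvae (10 to 15 per well). Mortality and growth inhibition scored against untreated samples 5 days after infestation; activity cut-off at least 80% in either category at 200 ppm.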

Cc1cc(C2=NO[C@@](c3cc(Cl)cc(Cl)c3)(C(F)(F)F)C2)ccc1C(=O)N[C@@H]1CON(S(=O)(=O)CBr)C1 [Compound A173, N-[(4S)-2-(bromomethylsulfonyl)-1,2-oxazolidin-4-yl]-4-[(5S)-5-(3,5-dichlorophenyl)-5-(trifluoromethyl)-4H-1,2-oxazol-3-yl]-2-methylbenzamide]
≥ 80%: mortality at 200 ppm [1] | percent effect (mortality or growth inhibition) at 200 ppm [2] | percent effect (mortality or growth inhibition) at 200 ppm [3] | mortality at 200 ppm [4] | mortality at 200 ppm [5] | mortality at 200 ppm [6] | percent effect (mortality or growth inhibition) at 200 ppm [7]

Cc1cc(C2=NO[C@@](c3cc(Cl)cc(Cl)c3)(C(F)(F)F)C2)ccc1C(=O)N[C@@H]1CON(S(=O)(=O)CC(=O)O)C1 [Compound A174, 2-[[(4S)-4-[[4-[(5S)-5-(3,5-dichlorophenyl)-5-(trifluoromethyl)-4H-1,2-oxazol-3-yl]-2-methylbenzoyl]amino]-1,2-oxazolidin-2-yl]sulfonyl]acetic acid]
≥ 80%: mortality at 200 ppm [1] | percent effect (mortality or growth inhibition) at 200 ppm [2] | percent effect (mortality or growth inhibition) at 200 ppm [3] | mortality at 200 ppm [4] | mortality at 200 ppm [5] | mortality at 200 ppm [6] | percent effect (mortality or growth inhibition) at 200 ppm [7]

Cc1cc(C2=NO[C@@](c3cc(Cl)cc(Cl)c3)(C(F)(F)F)C2)ccc1C(=O)N[C@@H]1CON(S(N)(=O)=O)C1 [Compound A178, 4-[(5S)-5-(3,5-dichlorophenyl)-5-(trifluoromethyl)-4H-1,2-oxazol-3-yl]-2-methyl-N-[(4S)-2-sulfamoyl-1,2-oxazolidin-4-yl]benzamide]
≥ 80%: mortality at 200 ppm [1] | percent effect (mortality or growth inhibition) at 200 ppm [2] | percent effect (mortality or growth inhibition) at 200 ppm [3] | mortality at 200 ppm [4] | mortality at 200 ppm [5] | mortality at 200 ppm [6] | percent effect (mortality or growth inhibition) at 200 ppm [7]

CNS(=O)(=O)N1C[C@@H](NC(=O)c2ccc(C3=NO[C@](c4cc(F)cc(C(F)(F)F)c4)(C(F)(F)F)C3)cc2C)CO1 [Compound A180]
≥ 80%: mortality at 200 ppm [1] | percent effect (mortality or growth inhibition) at 200 ppm [2] | percent effect (mortality or growth inhibition) at 200 ppm [3] | mortality at 200 ppm [4] | mortality at 200 ppm [5] | mortality at 200 ppm [6] | percent effect (mortality or growth inhibition) at 200 ppm [7]

CNS(=O)(=O)N1C[C@H](NC(=O)c2ccc(C3=NO[C@@](c4ccc(F)c(C(F)(F)F)c4)(C(F)(F)F)C3)cc2C)CO1 [Compound A181]
≥ 80%: mortality at 200 ppm [1] | percent effect (mortality or growth inhibition) at 200 ppm [2] | percent effect (mortality or growth inhibition) at 200 ppm [3] | mortality at 200 ppm [4] | mortality at 200 ppm [5] | mortality at 200 ppm [6] | percent effect (mortality or growth inhibition) at 200 ppm [7]

Cc1cc(C2=NO[C@@](c3ccc(F)c(C(F)(F)F)c3)(C(F)(F)F)C2)ccc1C(=O)N[C@H]1CON(S(C)(=O)=O)C1 [Compound A183]
≥ 80%: mortality at 200 ppm [1] | percent effect (mortality or growth inhibition) at 200 ppm [2] | percent effect (mortality or growth inhibition) at 200 ppm [3] | mortality at 200 ppm [4] | mortality at 200 ppm [5] | mortality at 200 ppm [6] | percent effect (mortality or growth inhibition) at 200 ppm [7]

Cc1cc(C2=NO[C@](c3ccc(F)c(C(F)(F)F)c3)(C(F)(F)F)C2)ccc1C(=O)N[C@@H]1CON(S(=O)(=O)N(C)C)C1 [Compound A184]
≥ 80%: mortality at 200 ppm [1] | percent effect (mortality or growth inhibition) at 200 ppm [2] | percent effect (mortality or growth inhibition) at 200 ppm [3] | mortality at 200 ppm [4] | mortality at 200 ppm [5] | mortality at 200 ppm [6] | percent effect (mortality or growth inhibition) at 200 ppm [7]

Cc1cc(C2=NO[C@](c3cc(Cl)cc(C(F)F)c3)(C(F)(F)F)C2)ccc1C(=O)N[C@H]1CON(S(C)(=O)=O)C1 [Compound A185]
≥ 80%: mortality at 200 ppm [1] | percent effect (mortality or growth inhibition) at 200 ppm [2] | percent effect (mortality or growth inhibition) at 200 ppm [3] | mortality at 200 ppm [4] | mortality at 200 ppm [5] | mortality at 200 ppm [6] | percent effect (mortality or growth inhibition) at 200 ppm [7]

Cc1cc(C2=NO[C@](c3cc(Cl)cc(C(F)F)c3)(C(F)(F)F)C2)ccc1C(=O)N[C@H]1CON(S(=O)(=O)N(C)C)C1 [Compound A186]
≥ 80%: mortality at 200 ppm [1] | percent effect (mortality or growth inhibition) at 200 ppm [2] | percent effect (mortality or growth inhibition) at 200 ppm [3] | mortality at 200 ppm [4] | mortality at 200 ppm [5] | mortality at 200 ppm [6] | percent effect (mortality or growth inhibition) at 200 ppm [7]

Cc1cc(C2=NO[C@@](c3cc(Cl)c(F)c(Cl)c3)(C(F)(F)F)C2)ccc1C(=O)N[C@@H]1CON(S(=O)(=O)N(C)C2(C#N)CC2)C1 [Compound A187]
≥ 80%: mortality at 200 ppm [1] | percent effect (mortality or growth inhibition) at 200 ppm [2] | percent effect (mortality or growth inhibition) at 200 ppm [3] | mortality at 200 ppm [4] | mortality at 200 ppm [5] | mortality at 200 ppm [6] | percent effect (mortality or growth inhibition) at 200 ppm [7]

Cc1cc(C2=NO[C@@](c3cc(Cl)c(F)c(Cl)c3)(C(F)(F)F)C2)ccc1C(=O)N[C@@H]1CON(S(=O)(=O)N2CCOCC2)C1 [Compound A188, 4-[(5S)-5-(3,5-dichloro-4-fluorophenyl)-5-(trifluoromethyl)-4H-1,2-oxazol-3-yl]-2-methyl-N-[(4S)-2-morpholin-4-ylsulfonyl-1,2-oxazolidin-4-yl]benzamide]
≥ 80%: mortality at 200 ppm [1] | percent effect (mortality or growth inhibition) at 200 ppm [2] | percent effect (mortality or growth inhibition) at 200 ppm [3] | mortality at 200 ppm [4] | mortality at 200 ppm [5] | mortality at 200 ppm [6] | percent effect (mortality or growth inhibition) at 200 ppm [7]

Cc1cc(C2=NO[C@@](c3cc(Cl)c(F)c(Cl)c3)(C(F)(F)F)C2)ccc1C(=O)N[C@H]1CON(S(=O)(=O)CBr)C1 [Compound A189, N-[(4R)-2-(bromomethylsulfonyl)-1,2-oxazolidin-4-yl]-4-[(5S)-5-(3,5-dichloro-4-fluorophenyl)-5-(trifluoromethyl)-4H-1,2-oxazol-3-yl]-2-methylbenzamide]
≥ 80%: mortality at 200 ppm [1] | percent effect (mortality or growth inhibition) at 200 ppm [2] | percent effect (mortality or growth inhibition) at 200 ppm [3] | mortality at 200 ppm [4] | mortality at 200 ppm [5] | mortality at 200 ppm [6] | percent effect (mortality or growth inhibition) at 200 ppm [7]

Cc1cc(C2=NO[C@](c3cc(Cl)c(F)c(Cl)c3)(C(F)(F)F)C2)ccc1C(=O)N[C@H]1CON(S(=O)(=O)CC(F)(F)F)C1 [Compound A192, 4-[(5R)-5-(3,5-dichloro-4-fluorophenyl)-5-(trifluoromethyl)-4H-1,2-oxazol-3-yl]-2-methyl-N-[(4R)-2-(2,2,2-trifluoroethylsulfonyl)-1,2-oxazolidin-4-yl]benzamide]
≥ 80%: mortality at 200 ppm [1] | percent effect (mortality or growth inhibition) at 200 ppm [2] | percent effect (mortality or growth inhibition) at 200 ppm [3] | mortality at 200 ppm [4] | mortality at 200 ppm [5] | mortality at 200 ppm [6] | percent effect (mortality or growth inhibition) at 200 ppm [7]

Cc1cc(C2=NO[C@@](c3cc(Cl)c(C(F)F)c(Cl)c3)(C(F)(F)F)C2)ccc1C(=O)N[C@@H]1CON(S(=O)(=O)N(C)C)C1 [Compound A196, 4-[(5S)-5-[3,5-dichloro-4-(difluoromethyl)phenyl]-5-(trifluoromethyl)-4H-1,2-oxazol-3-yl]-N-[(4S)-2-(dimethylsulfamoyl)-1,2-oxazolidin-4-yl]-2-methylbenzamide]
≥ 80%: mortality at 200 ppm [1] | percent effect (mortality or growth inhibition) at 200 ppm [2] | percent effect (mortality or growth inhibition) at 200 ppm [3] | mortality at 200 ppm [4] | mortality at 200 ppm [5] | mortality at 200 ppm [6] | percent effect (mortality or growth inhibition) at 200 ppm [7]

Cc1cc(C2=NO[C@@](c3cc(Cl)c(C(F)F)c(Cl)c3)(C(F)(F)F)C2)ccc1C(=O)N[C@@H]1CON(S(C)(=O)=O)C1 [Compound A197, 4-[(5S)-5-[3,5-dichloro-4-(difluoromethyl)phenyl]-5-(trifluoromethyl)-4H-1,2-oxazol-3-yl]-2-methyl-N-[(4S)-2-methylsulfonyl-1,2-oxazolidin-4-yl]benzamide]
≥ 80%: mortality at 200 ppm [1] | percent effect (mortality or growth inhibition) at 200 ppm [2] | percent effect (mortality or growth inhibition) at 200 ppm [3] | mortality at 200 ppm [4] | mortality at 200 ppm [5] | mortality at 200 ppm [6] | percent effect (mortality or growth inhibition) at 200 ppm [7]

— patent US10588317B2, “Isoxazoline-substituted benzamides and analogues as insecticides” (priority 2015, dated 2020)
